Measurements taken from article PMC6013238, “Development of novel NEMO-binding domain mimetics for inhibiting IKK/NF-κB activation” (PLoS Biology, 2018).
pIC50: −log10 of the molar value. Several values for one entry are separate records, joined by “and”; a condition that tells them apart may be missing. Identical values can stand only once. Like-named read-outs stand apart in the source and are kept apart here.

Tests used:
NEMO = settings: ref [21], [32]–[34]; read-out: IC50, affinity to NEMO; cited from earlier work
NF-κB activation = assay: Dual-luciferase (NF-κB firefly/SV40-Renilla) reporter assay, TNF-α-stimulated HEK293 cells; format: cell-based, human; settings: for Relative luciferase activity (NF-κB/Renilla): Fig 4B, CTRL about 1; for NF-κB luciferase activity, dose-dependent curve: Fig S1A, CTRL about 100; for pIC50: Homo sapiens, HEK293, luciferase assays at 0, 25, 50, 100, 150 μM, GraphPad, read-out: IC50 of inhibition of TNF-α-mediated NF-κB activation
NF-κB target genes = assay: qRT-PCR of NF-κB target genes in LPS-stimulated Raw 264.7 cells; format: cell-based, mouse; settings: LPS 1 μg/ml 2 h; for COX2 mRNA expression (qRT-PCR) / IL6 mRNA expression (qRT-PCR) / IL-1b mRNA expression (qRT-PCR) / TNFa mRNA expression (qRT-PCR) / iNOS mRNA expression (qRT-PCR) / ikBa mRNA expression (qRT-PCR): Fig 4C, IKKi VII 2 μM, 8K-NBD 200 μM, SR compounds 50 μM, relative to no LPS; for Effect on transcription of NF-κB target genes (COX-2, IL-6, IL-1β, TNF-α, IκBα, iNOS): 50 μM
IL-6 production = assay: Mouse IL-6 ELISA of supernatant of LPS-stimulated Raw 264.7 cells; format: cell-based; settings: LPS 1 μg/ml 24 h; for mIL-6 in supernatant (ELISA): Fig 4D; for Effect on LPS-induced IL-6 production (ELISA): 25 and 50 μM
Description: Fig 4 Modified lead NBD mimetics inhibit TNF-α- and LPS-induced NF-κB activation by disrupting the association between NEMO and IKKβ. (A) Structures of top NBD mimetics. (B) Measurement of NF-κB activation in response to TNF-α by using Dual-luciferase reporter assays. HEK293 cells cotransfected with NF-κB luciferase reporter and SV40-Renilla plasmids were pretreated with DMSO or listed small molecules at 0, 25, 50, 100, and 150 μM for 30 min, followed by the induction of TNF-α for 3 h. Data shown are representative of 2–3 independent experiments. […] Raw 264.7 cells were pretreated with indicated drugs for 30 min and then stimulated with 1 μg/ml of LPS for 2 h. Cells were then harvested for RNA extraction and qRT-PCR analysis. Drug concentrations used are as follows: IKKi VII (2 μM), 8K-NBD peptide (200 μM), SR12343 (50 μM), SR12460 (50 μM), SR12454 (50 μM), and SR11481 (50 μM). Data are representative of 2 independent experiments. […] Raw 264.7 cells pretreated with DMSO or drugs at indicated concentrations were exposed to 1 μg/ml of LPS for 24 h, and supernatant was collected for ELISA analysis of mouse IL-6. *P < 0.05; **P < 0.01. Underlying data can be found in S1 Data. HEK293, human embryonic kidney 293 cells; IKK, IκB kinase; IL-6, interleukin 6; LPS, lipopolysaccharide; NBD, NEMO-binding domain; n.d., nondetectable; NEMO, NF-κB essential modulator; NF-κB, nuclear factor κB; qRT-PCR, […] real-time polymerase chain reaction; TNF-α; tumor necrosis factor α. TEXT PRINTED IN THE PICTURE: (D) ikki VII: mIL-6 (ng/ml): n.d. | (D) SR12460: mIL-6 (ng/ml): n.d. (50μM) | (D) SR12454: mIL-6 (ng/ml): n.d. (50μM) DOUBTS OF THE COPYIST ABOUT THIS PICTURE: Panel D: the only printed results are the three "n.d." labels. They stand in place of bars and are assigned to ikki VII, SR12460 50μM and SR12454 50μM by their position on the axis. All other results are shown only as bars, with no printed numbers.
To confirm the qRT-PCR results, the levels of IL-6 production in Raw 264.7 cells activated by LPS were analyzed by ELISA.
Raw 264.7 cells were grown in 96-well plates and pretreated with vehicle, IKKi VII (2 μM), and small molecules (at indicated concentration) for 1 h, followed by the stimulation with 1 μg/ml of LPS. Supernatant was collected 24 h later for ELISA analysis. IL-6 concentration was measured using a mouse IL-6 ELISA kit (BD) according to the manufacturer’s instructions.

[1] = Plasma and tissue concentrations 2 h after a single i.p. injection; format: in vivo, mouse; settings: male, C57BL/6J, mouse, ip, 10 mg/kg, 2 h post single i.p. 10 mg/kg, single mice
Description: To determine the stability of the NBD mimetics in vivo, their levels were measured in the plasma of mice 2 h post i.p. injection with 10 mg/kg of each compound. The concentration of SR12460 was very high in plasma (>6.5 μg/mL; 20 μM), while levels in brain, muscle, spleen, and liver were lower. SR12343 and SR12454 had lower plasma concentrations, with SR12343 showing a higher level in liver and SR12454 showing higher concentrations in muscle and spleen. The level of SR11481 was undetectable in plasma and tissues (Fig 6A).
Fig 6 Newly identified NBD mimetics suppress LPS-induced acute inflammation in vivo. (A) The bioavailability property of SR12460, SR12343, SR12454, and SR11481. Concentrations of NBD mimetics were determined in plasma, brain, muscle, spleen, and liver 2 h post a single i.p. injection of 10 mg/kg of drugs; n = 3 per group. (B) Shown is the model to induce LPS-mediated acute inflammation and the treatment regimen with NBD mimetics. Mouse image via http://www.clker.com/clipart-mice-blank.html (copyright-free). (C) NBD mimetics suppressed LPS-induced acute inflammation in liver and lung by down-regulating NF-κB target gene expression. Vehicle, SR12343, SR12460, and 8K-NBD peptide were dosed at 10 mg/kg 30 min prior to the LPS treatment. Acute inflammation was induced by i.p. injection of 10 mg/kg LPS. Lung and liver were collected 2–4 h post injection, and mRNA was extracted for qRT-PCR analysis. (D, E) Western blot analysis was performed to probe for the expression of p-IκBα and COX-2 at protein level in liver and lung tissues. (F) Serum levels of IL-6 were determine by ELISA. n = 3–8 each group. *P < 0.05, **P < 0.01. Underlying data can be found in S1 Data. COX-2, cyclooxygenase 2; IL-6, interleukin 6; i.p., intraperitoneal; LPS, lipopolysaccharide; NBD, NEMO-binding domain; n.d., nondetectable; NEMO, NF-κB essential modulator; NF-κB, nuclear factor κB; qRT-PCR, quantitative real-time polymerase chain reaction. TEXT PRINTED IN THE PICTURE: (A) SR11481: Concentration (ng/ml): n.d. (plasma)
The pharmacokinetic profile of the NBD mimetics was determined in male C57BL/6J mice (n = 3). The drugs were formulated in 10:10:80 of DMSO:Tween 80:water and were dosed by i.p. injection at a final dose of 10 mg/kg. Blood, brain, muscle, spleen, and liver were collected 2 h post treatment and were analyzed by mass spectrometry by following a protocol previously described.

pIC50 (NF-κB activation) | Compound | pIC50 (NEMO) | Relative luciferase activity (NF-κB/Renilla) (NF-κB activation; 25 μM) | Relative luciferase activity (NF-κB/Renilla) (NF-κB activation; 50 μM) | Relative luciferase activity (NF-κB/Renilla) (NF-κB activation; 100 μM) | Relative luciferase activity (NF-κB/Renilla) (NF-κB activation; 150 μM) | NF-κB luciferase activity, dose-dependent curve (NF-κB activation; 25 μM) | NF-κB luciferase activity, dose-dependent curve (NF-κB activation; 50 μM) | NF-κB luciferase activity, dose-dependent curve (NF-κB activation; 100 μM) | NF-κB luciferase activity, dose-dependent curve (NF-κB activation; 150 μM) | COX2 mRNA expression (qRT-PCR) (NF-κB target genes) | IL6 mRNA expression (qRT-PCR) (NF-κB target genes) | IL-1b mRNA expression (qRT-PCR) (NF-κB target genes) | TNFa mRNA expression (qRT-PCR) (NF-κB target genes) | iNOS mRNA expression (qRT-PCR) (NF-κB target genes) | ikBa mRNA expression (qRT-PCR) (NF-κB target genes) | Effect on transcription of NF-κB target genes (COX-2, IL-6, IL-1β, TNF-α, IκBα, iNOS) (NF-κB target genes) | mIL-6 in supernatant (ELISA) (IL-6 production; 25 μM) | mIL-6 in supernatant (ELISA) (IL-6 production; 50 μM) | Effect on LPS-induced IL-6 production (ELISA) (IL-6 production) | other results
 | 11-mer NBD peptide: traditional 11-mer NBD peptide of IKKβ (735–745) (TALDWSWLQTE; NEMO-binding domain peptide; UniProt O14920 735-745, looked up, fragment) | ~4.00 |  |  |  |  |  |  |  |  |  |  |  |  |  |  |  |  |  |  | 
4.35 | O=C(COC(=O)Cc1cc(F)cc(F)c1)Nc1ccc(Cl)cn1 [SR11481] |  | 0.669 and 0.7893 and 1.108 | 0.3445 and 0.3583 and 0.2895 | 0.1303 and 0.1653 and 0.168 | 0.2602 and 0.3121 and 0.2334 | 67 and 79 and 111 | 34 and 36 and 29 | 13 and 16 and 17 | 26 and 31 and 23 | 591.346 and 521.171 and 682.383 | 630.626 and 570.463 and 862.622 | 411.733 and 420.368 and 564.689 | 96.3315 and 86.7639 and 154.495 | 25.4503 and 21.5558 and 14.0886 | 12.89 and 13.062 and 21.9932 | did not induce a detectable suppression | 1.0708 ng/mL and 1.7487 ng/mL and 1.6903 ng/mL | 2.4581 ng/mL and 2.0675 ng/mL and 2.2021 ng/mL | significant reduction in the accumulation of IL-6 protein | concentration at 2 h ([1]; plasma, read-out: Concentration in plasma): 0 ng/mL
4.69 | O=C(COCCc1cc(F)cc(F)c1)Nc1ccc(Cl)cn1 [SR12454] |  | 0.3499 and 0.3985 and 0.4797 | 0.1222 and 0.1389 and 0.1212 | 0.07928 and 0.07742 and 0.08432 | 0.1048 and 0.1061 and 0.0973 | 35 and 40 and 48 | 12 and 14 | 8 and 7.7 and 8.4 | 10.4 and 10.6 and 9.7 | 150.094 and 139.148 and 109.409 | 68.7623 and 55.5227 and 41.2895 | 114.812 and 133.157 and 94.1462 | 50.3605 and 45.36 and 45.9381 | 0.9093 and 0.7681 and 0.624 | 6.788 and 6.238 and 5.4976 | significantly inhibit the transcription of all NF-κB target genes tested | 0.9451 ng/mL and 1.2144 ng/mL and 1.5871 ng/mL | 0 ng/mL | inhibit IL-6 secretion significantly in a dose-dependent manner | concentration at 2 h ([1]; liver, read-out: Concentration in liver): 50 ng/mL
 | IKKβ-derived peptide (701–746): longer IKKβ-derived peptide (701–746) with strongest affinity to NEMO (PAKKSEELVAEAHNLCTLLENAIQDTVREQDQSFTALDWSWLQTEE; UniProt O14920 701-746, looked up, fragment) | ~8.00 |  |  |  |  |  |  |  |  |  |  |  |  |  |  |  |  |  |  | 
